Some test systems named below: MCF7 breast; NCI-H522 lung; MDA-MB-435; BT-549 breast; PC-3 prostate; MDA-N; HL-60(TB) leukemia; MDA-MB-231 breast; HCC-2998 colon; XF 498 CNS; DMS 273 small cell lung.
Holding throughout (experiment): DTP human tumour cell line panel, 48 h

The structures appear in SMILES notation.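 The compound was tested at five concentrations on cells cultured in 96-well plates, with a 48-hour exposure period. At the GI50, growth is halved. TGI: concentration producing complete growth inhibition.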

As usually defined, the GI50 is the concentration at which growth is held to half of that of the control. A word on the TGI: it is the concentration giving total growth inhibition. With `NC(=O)c1c(NC(=O)c2ccccn2)sc2c1CCC(=O)C2`, the GI50 in the test with MCF7 breast is 2.37 µM; in the test on NCI-H522 lung, 0.821 µM; with MDA-MB-435, 3.22 µM; in the test on BT-549 breast, 2.18 µM. For the same molecule, the TGI with MCF7 breast is greater than 100 µM; with NCI-H522 lung it was 8.65 µM; with MDA-MB-435, greater than 100 µM; in the test on BT-549 breast, greater than 100 µM; in the test on PC-3 prostate, greater than 100 µM.
On to `COc1nc(C#CC2(O)CCCCC2)nc(OC)n1`, for which the TGI with MDA-N stood at 26.3 µM; in the test with MCF7 breast, 19.4 µM; in the test with HL-60(TB) leukemia, 16.3 µM; in the test with NCI-H522 lung it was 21.9 µM; in the test on MDA-MB-435 it was 18.8 µM; with BT-549 breast, 28 µM. The figures for the TGI in the test with PC-3 prostate and with MDA-MB-231 breast were 18.5 µM and 15 µM, respectively.
`O=C(OCN1C(=O)C2C3C=CC(C2C1=O)C1C2C(=O)N(COC(=O)C4CCCN4)C(=O)C2C31)C1CCCN1` (stereo not given): the TGI in the test on HL-60(TB) leukemia was 43.6 µM; in the test with HCC-2998 colon, greater than 100 µM; in the test on NCI-H522 lung, greater than 100 µM; in the test with XF 498 CNS, greater than 100 µM; with DMS 273 small cell lung it was greater than 56.4 µM.
In the case of `O=C(O)C1C2CCC(O2)C1C(=O)Nc1cccc2cccnc12` (stereo not given), the TGI with MDA-N, with MCF7 breast, with HCC-2998 colon, with NCI-H522 lung, in the test with MDA-MB-435 and in the test on BT-549 breast was greater than 100 µM throughout. Further, the TGI with PC-3 prostate and in the test on MDA-MB-231 breast was greater than 100 µM in each case.
Turning to `COc1ccc2c(c1)[nH]c1c(/C=C/c3ccccc3)nccc12`, the TGI with MDA-N is 37.2 µM; with MCF7 breast, 41.6 µM; with HL-60(TB) leukemia, 54 µM; with HCC-2998 colon, 29.9 µM; in the test on NCI-H522 lung, 29 µM; in the test with MDA-MB-435, 49 µM. The TGI stood at 29.9 µM in the test on BT-549 breast, 38.9 µM in the test on PC-3 prostate and 37.2 µM in the test with MDA-MB-231 breast.
Take `CN(C)CC(CC1=C(CC(CN(C)C)N(C)C)CCC1)N(C)C` (stereo not given): the TGI with MCF7 breast, in the test with HL-60(TB) leukemia, with HCC-2998 colon, in the test on NCI-H522 lung, in the test on XF 498 CNS and with DMS 273 small cell lung was greater than 100 µM throughout.
With `CC1=CC(=O)c2ccccc2C1=O`, the TGI in the test with MDA-N came out at 2.37 µM; with MCF7 breast, 23.8 µM; with HL-60(TB) leukemia, 5.94 µM; with HCC-2998 colon it was 30.7 µM; in the test with NCI-H522 lung it was 11.7 µM; in the test with MDA-MB-435, 3.81 µM. For the same molecule, the values for the TGI with BT-549 breast, in the test with PC-3 prostate and in the test on MDA-MB-231 breast were 25.6 µM, 16.4 µM and 9.87 µM, respectively.
Regarding `Nc1nc(SCCc2ccccc2)nc2nc3c(c(-c4ccccc4)c12)CCCC3`, the TGI in the test on MDA-N, in the test on MCF7 breast, in the test on HL-60(TB) leukemia, in the test with MDA-MB-435, in the test on BT-549 breast and with PC-3 prostate was greater than 100 µM in each case. The molecule further had a TGI in the test on MDA-MB-231 breast greater than 100 µM.
For the molecule `COc1cccc2c1Cc1cc(-c3ccccc3)[n+](C)n1-2`, the TGI with MDA-N was 26 µM; with MCF7 breast it was 5.53 µM; with HL-60(TB) leukemia, 44.9 µM; in the test on HCC-2998 colon it was greater than 100 µM; in the test on NCI-H522 lung it was greater than 100 µM; in the test on MDA-MB-435 it was 25.5 µM. For the same molecule, the TGI in the test with BT-549 breast came to 99.5 µM; with PC-3 prostate, 89.7 µM; in the test with MDA-MB-231 breast it was 81.7 µM.
For `C[C@H](CCC(=O)O)[C@H]1CC[C@@]2(C)[C@@H]3C(=O)C[C@H]4C(C)(C)[C@@H](O)CC[C@]4(C)[C@H]3C(=O)C[C@]12C`, the TGI with MDA-N, with MCF7 breast, in the test on HL-60(TB) leukemia, with HCC-2998 colon, in the test on NCI-H522 lung and in the test with MDA-MB-435 was greater than 100 µM in each case. Also, the TGI with BT-549 breast, with PC-3 prostate and in the test with MDA-MB-231 breast was greater than 100 µM throughout.
Take `CCn1c(-c2ccc(N=NNc3ccc(-c4n[nH]c(=S)n4CC)cc3)cc2)n[nH]c1=S`: the TGI with MDA-N is greater than 100 µM; in the test on MCF7 breast, 29.2 µM; in the test on NCI-H522 lung, 5.71 µM; in the test with BT-549 breast, 5.73 µM; in the test on PC-3 prostate, 8.34 µM; in the test with MDA-MB-231 breast it was greater than 100 µM.
`O=c1cccccc1[O-].O=c1cccccc1[O-].[O]=[U+2]=[O]`: in the test with XF 498 CNS, the GI50 was 25.7 µM and the TGI turned out to be 47.3 µM. Moreover, in the test with DMS 273 small cell lung, the GI50 is 22.6 µM and the total growth inhibition concentration (TGI) turned out to be 58.3 µM.
With `Nc1ccccc1S(=O)(=O)c1ccccc1`, the TGI in the test with HL-60(TB) leukemia, with HCC-2998 colon and in the test on DMS 273 small cell lung was greater than 100 µM throughout.
On to `O=C(/C=C/c1ccc(O)c(-c2cc(C(=O)/C=C/c3ccc(O)cc3)c(O)cc2O)c1)c1ccc(O)cc1O`, for which the TGI with MDA-N, with MCF7 breast, in the test on HL-60(TB) leukemia, in the test with NCI-H522 lung, in the test with MDA-MB-435 and in the test with BT-549 breast was greater than 50 µM each time. Besides, the TGI in the test on PC-3 prostate and in the test with MDA-MB-231 breast was greater than 50 µM each time.

Source of the values: PubChem BioAssay (NCI).
